{"source": "patent US20210371413A1", "about": "“POLYCYCLIC AMIDES AS CYTOTOXIC AGENTS” (FEMTOGENIX LIMITED, priority 2018, published 2021)", "key": {"DS3 DNA fragment": {"system": "DS3 DNA fragment", "assay": "DNA footprinting, DS3 DNA fragment", "format": "binding", "details": "DS3 DNA sequence", "method": "The DNA sequence selectivity profile of the molecules was investigated using a modification of the previously established DNA footprinting assay. Following an overnight incubation of the ligand-DNA complexes, the mixture was mixed with strand separation buffer containing 10 mM EDTA, 10 mM NaOH, 0.1% bromophenol blue, 80% formamide and incubated at 100° C. for 3 min. The mixture was then immediately cooled on ice and run on an 8% denaturing gel.\nThe preparation of the DS3 DNA fragment (FIG. 5) and the “D” DNA fragment (FIG. 6) has been previously described. Briefly, the sequence which had been cloned into the BamHI site of pUC18 was obtained by cutting with HindIII and EcoRI. Radiolabelled DNA fragments were prepared by filling in the 3′-end of the HindIII site with [α-^32P]dATP using Klenow DNA polymerase (exo-).\nThe radiolabelled DNA fragment was separated from the remainder of the plasmid DNA on a 6% non-denaturing polyacrylamide gel. The gel (20 cm long, 0.3 mm thick) was run at 400 V in 1×TBE running buffer for about 1-2 h, until the bromophenol blue had run most of the way down the gel. The glass plates were separated and the position of the labelled DNA fragment was established by short (1 min) exposure to an X-ray film. The relevant band was then cut from the gel and the radiolabelled DNA eluted by adding 300 μL 10 mM Tris-HCl, pH 7.5 containing 0.1 mM EDTA and gently agitating overnight at room temperature. The eluted DNA was finally precipitated with ethanol and re-suspended in a suitable volume of 10 mM Tris-HCl, pH 7.5 containing 0.1 mM EDTA buffer so as to give at least 10 counts per second/μL on a hand-held Geiger counter. […]\nFootprinting reactions were performed as previously described using the DNA fragments DS3, which contains tracts of AT/GC bases; and using the “D” DNA fragments which represents a random DNA sequence. […] After gel purification, the radiolabelled DNA was dissolved in 10 mM Tris-HCl pH 7.5 containing 0.1 mM EDTA, at a concentration of about 10 c.p.s per μL as determined on a hand held Geiger counter. […]"}, "[1]": {"system": "5′-[…]-3′ (poly GC) DNA duplex", "assay": "FRET DNA melting, poly GC duplex", "format": "binding", "details": "FRET melting, FIG. 2 bottom panel (poly GC duplex)", "method": "(§1) FRET DNA melting studies were undertaken on 15 and 16 using two fluorescently labelled sequences. The sequences (FIG. 1) were designed to represent poly AT and poly GC sequences.\n(§2) The short duplexes used in this FRET study are relatively unstable in the duplex form with a melting temperature below 30° C. so that, in the absence of ligand, a large part of the melting occurs below the starting temperature of the experiment. However, it can be observed that 15 stabilizes the duplex form, producing increases in melting temperature with ΔTm values of […] for 5′-AAAAAAAGAAAAAATIT-3′ (FIG. 2, top panel), and ˜25° C. (FIG. 2, bottom panel).\n(§3) Oligonucleotides were obtained from ATDbio (Southampton, UK) in lyophilised form. […]\n(§4) The reaction mixture was comprised of 4 μL of 250 mM phosphate buffer (final concentration of 50 mM), 4 μL flourophor and 4 μL quencher molecule of the appropriate oligonucleotide for a final concentration of 0.2 μM, 4 μL 5 M sodium chloride (final concentration of 1 M NaCl), and 4 μL of distilled H2O. […] This mixture was analysed without prior annealing.\n(§5) Fluorescence melting profiles were measured using a Roche LightCycler using a total reaction volume of 20 μL. […] Annealing steps and melting steps were all recorded and changes in fluorescence were measured at 520 nm. […]"}, "[2]": {"system": "5′-AAAAAAAGAAAAAATIT-3′ (poly AT) DNA duplex", "assay": "FRET DNA melting, poly AT duplex", "format": "binding", "details": "fragments of 15, FIG. 3; duplex not specified", "method": "as §1, §2, §3, §4, §5"}, "calf thymus DNA": {"system": "calf thymus DNA", "details": "cited from earlier work"}}, "data": [{"smiles": "COc1cc2c(cc1OCCCC(=O)Nc1cc(C(=O)Nc3ccc(-c4cc(C(=O)Nc5ccc(N)cc5)n(C)c4)cc3)n(C)c1)N=C[C@@H]1CCCCN1C2=O", "note": "[Compound 15, (S)—N-(4-aminophenyl)-4-(4-(4-(4-((2-methoxy-12-oxo-6a,7,8,9,10,12-hexahydrobenzo[e]pyrido[1,2-a][1,4]diazepin-3-yl)oxy)butan-amido)-1-methyl-1H-pyrrole-2-carboxamido)phenyl)-1-methyl-1H-pyrrole-2-carboxamide]", "values": [{"measurement": "DNA binding pattern (footprint)", "setting": "DS3 DNA fragment", "value": "bind to tracts of DNA where a GC base is present"}, {"measurement": "ΔTm (increase in melting temperature)", "setting": "[1]", "value": "~25", "unit": "°C"}]}, {"smiles": "COc1cc2c(cc1O)N=C[C@@H]1CCCCN1C2=O", "note": "[Compound 28, (S)-3-Hydroxy-2-methoxy-7,8,9,10-tetrahydrobenzo[e]-pyrido[1,2-a][1,4]diazepin-12(6aH)-one]", "values": [{"measurement": "DNA stabilisation (FRET denaturation)", "setting": "[2]", "value": "failed to stabilise DNA"}]}, {"smiles": "Cn1cc(N)cc1C(=O)Nc1ccc(-c2cc(C(=O)Nc3ccc(N)cc3)n(C)c2)cc1", "note": "[Compound 32, 4-Amino-N-(4-(5-((4-aminophenyl)carbamoyl)-1-methyl-1H-pyrrol-3-yl)phenyl)-1-methyl-1H-pyrrole-2-carboxamide]", "values": [{"measurement": "DNA stabilisation (FRET denaturation)", "setting": "[2]", "value": "failed to stabilise DNA"}]}, {"smiles": "Cc1ccc2c(c1O)NC(O)C1CC(/C=C/C(N)=O)=CN1C2=O", "note": "(centres unmarked) [anthramycin]", "values": [{"measurement": "thermal stabilization (ΔTm)", "setting": "calf thymus DNA", "value": 13.1, "unit": "°C"}]}]}
